According to PubChem BioAssay AID248 (DTP/NCI, 2004):
Inconclusive results and toxic doses are left out. Cut-off read from the data, not from the text of the source: active = T/C of 150% or more; inactive = T/C below 125%. Square brackets hold non-standard residues; d marks the D form. Peptide text beside a SMILES is read from it. * marks the point of attachment. ξ: configuration not given here. ξE = NC(CCC(=O)O)C(=O)O; Cbz = O=C(OCc1ccccc1)*

System: L1210 leukemia ip in BDF1 mice, survival T/C
Assay: NCI In Vivo Anticancer Drug Screen. Data for tumor model L1210 Leukemia (intraperitoneal) in B6D2F1 (BDF1) mice
Conditions: higher = longer survival
Procedure, shortened: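 Read-out is survival time, reported as the treated-group measurement over the vehicle-control measurement.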

[1] = endpoint: mean survival time, dose: 100.0 mg/kg/injection, schedule: Q01DX001 (ip), vehicle: carboxymethylcellulose (CMC)
[2] = endpoint: mean survival time, dose: 200.0 mg/kg/injection, schedule: Q01DX001 (ip), vehicle: carboxymethylcellulose (CMC)
[3] = endpoint: mean survival time, dose: 400.0 mg/kg/injection, schedule: Q01DX001 (ip), vehicle: carboxymethylcellulose (CMC)
[4] = endpoint: mean survival time, dose: 100.0 mg/kg/injection, schedule: Q01DX009 (ip), vehicle: Klucel (hydroxypropylcellulose) (HPC)
[5] = endpoint: mean survival time, dose: 200.0 mg/kg/injection, schedule: Q01DX009 (ip), vehicle: Klucel (hydroxypropylcellulose) (HPC)
[6] = endpoint: mean survival time, dose: 50.0 mg/kg/injection, schedule: Q01DX009 (ip), vehicle: Klucel (hydroxypropylcellulose) (HPC)
[7] = endpoint: mean survival time, dose: 100.0 mg/kg/injection, schedule: Q04DX003 (ip), vehicle: Klucel (hydroxypropylcellulose) (HPC)
[8] = endpoint: mean survival time, dose: 200.0 mg/kg/injection, schedule: Q04DX003 (ip), vehicle: Klucel (hydroxypropylcellulose) (HPC)

Measured: T/C

CC(=O)OC1(C)CC(C)C(=O)C(C(O)CC2CC(=O)NC(=O)C2)C1 (centres undefined)
inactive: endpoint: mean survival time, dose: 0.05 mg/kg/injection, schedule: Q01DX009 (ip), vehicle: saline with Tween-80 108 % of control | endpoint: mean survival time, dose: 0.06 mg/kg/injection, schedule: Q01DX009 (ip), vehicle: water 107 % of control | endpoint: mean survival time, dose: 0.1 mg/kg/injection, schedule: Q01DX009 (ip), vehicle: saline with Tween-80 114 % of control | endpoint: mean survival time, dose: 0.12 mg/kg/injection, schedule: Q01DX009 (ip), vehicle: saline 117 % of control | endpoint: mean survival time, dose: 0.15 mg/kg/injection, schedule: Q01DX009 (ip), vehicle: saline with Tween-80 91 % of control | endpoint: mean survival time, dose: 0.15 mg/kg/injection, schedule: Q01DX009 (ip), vehicle: saline 120 % of control | endpoint: mean survival time, dose: 0.2 mg/kg/injection, schedule: Q01DX009 (ip), vehicle: saline with Tween-80 120 % of control | endpoint: mean survival time, dose: 0.25 mg/kg/injection, schedule: Q01DX009 (ip), vehicle: saline 109 % of control | endpoint: mean survival time, dose: 0.3 mg/kg/injection, schedule: Q01DX009 (ip), vehicle: saline 118 % of control | endpoint: mean survival time, dose: 0.5 mg/kg/injection, schedule: Q01DX009 (ip), vehicle: saline 96 % of control | endpoint: mean survival time, dose: 0.5 mg/kg/injection, schedule: Q01DX009 (ip), vehicle: water 108 % of control | endpoint: mean survival time, dose: 0.5 mg/kg/injection, schedule: Q04DX003 (ip), vehicle: water 108 % of control | endpoint: mean survival time, dose: 1.0 mg/kg/injection, schedule: Q01DX009 (ip), vehicle: water 100 % of control | endpoint: mean survival time, dose: 1.0 mg/kg/injection, schedule: Q04DX003 (ip), vehicle: saline 115 % of control | endpoint: mean survival time, dose: 1.0 mg/kg/injection, schedule: Q04DX003 (ip), vehicle: water 109 % of control | endpoint: mean survival time, dose: 1.2 mg/kg/injection, schedule: Q01DX009 (ip), vehicle: saline 115 % of control | endpoint: mean survival time, dose: 2.0 mg/kg/injection, schedule: Q01DX001 (ip), vehicle: saline 102 % of control | endpoint: mean survival time, dose: 2.0 mg/kg/injection, schedule: Q04DX003 (ip), vehicle: saline 116 % of control | endpoint: mean survival time, dose: 2.0 mg/kg/injection, schedule: Q04DX003 (ip), vehicle: water 108 % of control | endpoint: mean survival time, dose: 2.0 mg/kg/injection, schedule: Q08DX002 (ip), vehicle: saline 102 % of control | endpoint: mean survival time, dose: 4.0 mg/kg/injection, schedule: Q01DX001 (ip), vehicle: saline 100 % of control | endpoint: mean survival time, dose: 4.0 mg/kg/injection, schedule: Q04DX003 (ip), vehicle: saline 114 % of control | endpoint: mean survival time, dose: 4.0 mg/kg/injection, schedule: Q04DX003 (ip), vehicle: water 100 % of control | endpoint: mean survival time, dose: 4.0 mg/kg/injection, schedule: Q08DX002 (ip), vehicle: saline 98 % of control | endpoint: mean survival time, dose: 8.0 mg/kg/injection, schedule: Q01DX001 (ip), vehicle: saline 109 % of control | endpoint: mean survival time, dose: 8.0 mg/kg/injection, schedule: Q08DX002 (ip), vehicle: saline 100 % of control | endpoint: mean survival time, dose: 62.5 micrograms/kg/injection, schedule: Q01DX009 (ip), vehicle: saline 115 % of control | endpoint: mean survival time, dose: 125.0 micrograms/kg/injection, schedule: Q01DX009 (ip), vehicle: saline 123 % of control | endpoint: mean survival time, dose: 125.0 micrograms/kg/injection, schedule: Q03HX008 (ip), vehicle: saline 104 % of control | endpoint: mean survival time, dose: 125.0 micrograms/kg/injection, schedule: Q03HX016 (ip), vehicle: saline 123 % of control | endpoint: mean survival time, dose: 250.0 micrograms/kg/injection, schedule: Q01DX009 (ip), vehicle: saline 101 % of control | endpoint: mean survival time, dose: 250.0 micrograms/kg/injection, schedule: Q03HX008 (ip), vehicle: saline 112 % of control | endpoint: median survival time, dose: 1.0 mg/kg/injection, schedule: Q04DX003 (ip), vehicle: saline 103 % of control | endpoint: median survival time, dose: 2.0 mg/kg/injection, schedule: Q04DX003 (ip), vehicle: saline 105 % of control | endpoint: median survival time, dose: 4.0 mg/kg/injection, schedule: Q04DX003 (ip), vehicle: saline 106 % of control | endpoint: median survival time, dose: 8.0 mg/kg/injection, schedule: Q04DX003 (ip), vehicle: saline 114 % of control

CCOC(=O)CCc1c(C)c2cc(C(C)=O)c(O)cc2oc1=O
inactive: [1] 89 % of control | [2] 94 % of control | [3] 103 % of control

COc1ccc(Cl)cc1NC(=O)Nc1ccc(F)c([N+](=O)[O-])c1
inactive: [4] 106 % of control | [5] 104 % of control | endpoint: mean survival time, dose: 400.0 mg/kg/injection, schedule: Q01DX009 (ip), vehicle: Klucel (hydroxypropylcellulose) (HPC) 102 % of control

Cc1c(Cl)cccc1N=Cc1ccccc1O
inactive: [6] 96 % of control | [4] 108 % of control | [7] 109 % of control | [5] 110 % of control | [8] 107 % of control | endpoint: mean survival time, dose: 400.0 mg/kg/injection, schedule: Q04DX003 (ip), vehicle: Klucel (hydroxypropylcellulose) (HPC) 98 % of control

CCC(CC)NCC(C)O (centres undefined)
inactive: endpoint: mean survival time, dose: 75.0 mg/kg/injection, schedule: Q01DX001 (ip), vehicle: saline 105 % of control | endpoint: mean survival time, dose: 150.0 mg/kg/injection, schedule: Q01DX001 (ip), vehicle: saline 108 % of control | endpoint: mean survival time, dose: 300.0 mg/kg/injection, schedule: Q01DX001 (ip), vehicle: saline 102 % of control

CCC[CH2][Ge]([CH2]CCC)([CH2]CCC)[N]1C(=O)c2ccccc2C1=O
inactive: endpoint: mean survival time, dose: 50.0 mg/kg/injection, schedule: Q01DX001 (ip), vehicle: carboxymethylcellulose (CMC) 102 % of control | endpoint: mean survival time, dose: 50.0 mg/kg/injection, schedule: Q01DX001 (ip), vehicle: saline 100 % of control | [1] 96 % of control | endpoint: mean survival time, dose: 100.0 mg/kg/injection, schedule: Q01DX001 (ip), vehicle: saline 102 % of control | [2] 103 % of control | endpoint: mean survival time, dose: 200.0 mg/kg/injection, schedule: Q01DX001 (ip), vehicle: saline 96 % of control | [3] 105 % of control | endpoint: mean survival time, dose: 400.0 mg/kg/injection, schedule: Q01DX001 (ip), vehicle: saline 108 % of control

[O-][n+]1ccccc1F
inactive: endpoint: mean survival time, dose: 5.0 mg/kg/injection, schedule: Q01DX001 (ip), vehicle: saline 100 % of control | endpoint: mean survival time, dose: 10.0 mg/kg/injection, schedule: Q01DX001 (ip), vehicle: saline 102 % of control | endpoint: mean survival time, dose: 20.0 mg/kg/injection, schedule: Q01DX001 (ip), vehicle: saline 103 % of control | endpoint: mean survival time, dose: 40.0 mg/kg/injection, schedule: Q01DX001 (ip), vehicle: saline 96 % of control | endpoint: mean survival time, dose: 80.0 mg/kg/injection, schedule: Q01DX001 (ip), vehicle: saline 98 % of control

O=C(O)CCC(NC(=O)CNC(=O)OCc1ccccc1)C(=O)O (stereo not drawn) (Cbz-Gly-[ξE]-OH)
inactive: [6] 95 % of control | endpoint: mean survival time, dose: 50.0 mg/kg/injection, schedule: Q04DX003 (ip), vehicle: Klucel (hydroxypropylcellulose) (HPC) 92 % of control | [4] 97 % of control | [7] 96 % of control | [5] 93 % of control | [8] 93 % of control

COc1cc2c(c(OC)c1OC)-c1ccc(OC)c(=O)cc1[C@@H](NC=O)CC2
inactive: endpoint: mean survival time, dose: 0.35 mg/kg/injection, schedule: Q01DX015 (ip), vehicle: carboxymethylcellulose (CMC) 118 % of control | endpoint: mean survival time, dose: 0.5 mg/kg/injection, schedule: Q01DX009 (ip), vehicle: Klucel (hydroxypropylcellulose) (HPC) 122 % of control | endpoint: mean survival time, dose: 0.7 mg/kg/injection, schedule: Q01DX015 (ip), vehicle: carboxymethylcellulose (CMC) 112 % of control | endpoint: mean survival time, dose: 3.0 mg/kg/injection, schedule: Q01DX015 (ip), vehicle: carboxymethylcellulose (CMC) 90 % of control
